Entries after “also recorded” stand apart in the source; their conditions may differ.
What was measured:
[1] = test system: Alu RNA-induced RPE degeneration; test: Alu RNA-induced RPE degeneration in wild-type mice (fundus photography, ZO-1 flat mounts); assay type: in vivo, mouse; conditions: WT mice
Experimental: Assessment of RPE degeneration. Subretinal injections were performed as previously described (Kaneko et al., 2011; Tarallo et al., 2012; Kerur et al., 2013; Fowler et al., 2014; Kim et al., 2014). Seven days after subretinal injection, RPE health was assessed by fundus photography and immunofluorescence staining of zonula occludens-1 (ZO-1) on RPE flat mounts (whole mount of posterior eye cup containing RPE and choroid layers). Mouse RPE/choroid flat mounts were fixed with 2% paraformaldehyde, stained with rabbit polyclonal antibodies against mouse ZO-1 (1:100; Invitrogen Corp. Carlsbad, Calif., United States of America) and visualized with Alexa-594 (Invitrogen Corp.). All images were obtained by microscopy (Model SP-5 (Leica Microsystems, Inc., Buffalo Grove, Ill., United States of America) or Nikon MR confocal microscope system (Nikon Instruments Inc. Melville, N.Y., United States of America). Imaging was performed by an operator blinded to the group assignments.
Quantification of RPE degeneration. Quantification of RPE degeneration was performed using two methodologies (binary assignment and cellular morphometry) as described previously (Kerur et al., 2018): Binary assignment (healthy versus unhealthy; Kerur et al., 2013; Fowler et al., 2014; Kim et al., 2014; Kerur et al., 2018) was independently performed by two blinded raters (inter-rater agreement=99.7%; Pearson r2=0.986, P<0.0001; Fleiss x=0.993, P<0.0001). Quantifying cellular morphometry for hexagonally packed cells was performed in semi-automated fashion by three masked graders by adapting our previous analysis of the planar architecture of corneal endothelial cell density (Ach et al., 2015), which resembles the RPE in its polygonal tessellation. Polymegethism (coefficient of variation of cell size), a prominent geometric feature of RPE cells in GA (Kaneko et al., 2011; Dridi et al., 2012; Grossniklaus et al., 2013; Ach et al., 2015), was quantified using the Konan Cell Check software (Ver. 4.0.1), a commercial U.S. FDA-cleared software that has been used for registration clinical trials, as previously described (Kerur et al., 2018).
Subretinal and intravitreous injections. Subretinal injections (1 μl for mice, 3 μl for rat) or intravitreous injections (0.5 μl for mice, 2 μl for rat) in mice or rat were performed using a 35-gauge needle (Ito Co. Fuji, Japan). In vivo transfection of Alu RNA or mutant Alu RNA (3.6-300 ng per eye); Alu complementary DNA (cDNA; 0.0036-90 ng per eye); Alu reverse sequence cDNA (3.6-90 ng per eye); or 7SL cDNA (3.6-90 ng per eye) was performed using 10% NEUROPORTER™ transfection reagent (Genlantis, San Diego, Calif., United States of America) as previously described (Kaneko et al., 2011; Tarallo et al., 2012). […]

Alu cDNA = Alu cDNA in RPE flat mounts of Casp1/4 dko mice after subretinal Alu RNA (in situ hybridization); assay type: in vivo, mouse; conditions: subretinal Alu RNA (or Alu G25C RNA), NNRTIs at high doses
Experimental: Subretinal and intravitreous injections. Subretinal injections (1 μl for mice, 3 μl for rat) or intravitreous injections (0.5 μl for mice, 2 μl for rat) in mice or rat were performed using a 35-gauge needle (Ito Co. Fuji, Japan). In vivo transfection of Alu RNA or mutant Alu RNA (3.6-300 ng per eye); Alu complementary DNA (cDNA; 0.0036-90 ng per eye); Alu reverse sequence cDNA (3.6-90 ng per eye); or 7SL cDNA (3.6-90 ng per eye) was performed using 10% NEUROPORTER™ transfection reagent (Genlantis, San Diego, Calif., United States of America) as previously described (Kaneko et al., 2011; Tarallo et al., 2012). 3TC, TM-3TC, Cpep-3TC, Cpep, PA-4 3TC, EFV, DLV, or NVP (50 μM/1 μl or 500 μM/1 μl) were administered by intravitreous injection (Mandal et al., 2011; Nasrolahi et al., 2013). 1 μl of cholesterol-conjugated siRNAs (2 μg/μl) targeting mouse LINE1 or Luc (luciferase control; Dharmacon, Lafayette, Colo., United States of America) were subretinally injected three days prior to Alu RNA or vehicle administration. Similarly, in Oryzomys palustris, rat L1 plasmids expressing ORF1p, ORF2p, reverse transcriptase-deficient ORF2p (pORF2 (RT-)), or endonuclease deficient ORF2p (pORF2 (EN-)) were delivered via subretinal injection three days prior to administering Alu RNA or vehicle. The choice of eye for experimental versus control injection was chosen randomly. Rat L1 plasmids expressing ORF1 and ORF2 have been described previously (Kirilyuk et al., 2008). The ORF2 (EN-) construct contained mutations D207A and H232A, which, by CLUSTALW alignment, correspond to human D205A and H230A (see Feng et al., 1996) in the endonuclease domain of ORF2p. The ORF2 (RT-) construct contained mutation D703A, which, by CLUSTALW alignment, corresponds to human D702A (see Moran et al., 1996) in the reverse transcriptase domain of ORF2p.
In situ hybridization. […] Visualization of fluorescein-labelled probe was performed with the TSA™ plus fluorescence system or the TSA™ plus Cy5 system (PerkinElmer). The fluorescent or Cy5 signals were detected using a Leica SP-5 or MR Nikon confocal microscope system.

[2] = intravitreous, high (500 μmol) doses

| Compound | Alu RNA-induced RPE degeneration [1, 2] | Alu cDNA in RPE in vivo (Alu cDNA) | Alu RNA-induced RPE degeneration ([1]; subretinal cholesterol-conjugated L1 siRNA vs control siRNA) |
| --- | --- | --- | --- |
| CC(C)Nc1cccnc1N1CCN(C(=O)c2cc3cc(NS(C)(=O)=O)ccc3[nH]2)CC1 [DLV, delavirdine] | blocked Alu RNA toxicity; also recorded: inhibited | prevented Alu cDNA formation in vivo; also recorded: blocked endogenous cDNA synthesis |  |
| O=C1Nc2ccc(Cl)cc2[C@@](C#CC2CC2)(C(F)(F)F)O1 [EFV, efavirenz] | blocked Alu RNA toxicity; also recorded: inhibited | prevented Alu cDNA formation in vivo; also recorded: blocked endogenous cDNA synthesis |  |
| Cc1ccnc2c1NC(=O)c1cccnc1N2C1CC1 [NVP, nevirapine] | did not prevent Alu RNA-induced RPE degeneration at low or high doses | did not prevent Alu cDNA synthesis |  |
| L1 siRNA: siRNA targeting L1; cholesterol-conjugated mouse L1 siRNA (SEQ ID NOs: 48 and 49) in vivo, human L1 siRNA sequences in human cells (chain 1 ACUAUUACUCUGAUACCTT; chain 2 UGUACUAAGGUCAAAUCTT; cholesterol conjugated, position not given here) |  |  | prevented Alu RNA-induced RPE degeneration in wild-type mice; also recorded: blocked Alu RNA induced RPE degeneration |

Source: patent US20210348164A1, “ENDOGENOUS CYTOPLASMIC ALU COMPLEMENTARY DNA IN AGE-RELATED MACULAR DEGENERATION” (University of Virginia Patent Foundation, priority 2018, published 2021)
